Results reported in patent US20050142104A1, “Methods of using and compositions comprising PDE4 modulators for the treatment and management of asbestos-related diseases and disorders” (priority 2003, published 2005).

Key:
[1] = Clinical studies in unresectable or relapsed mesothelioma patients; type: in vivo, human; conditions: 400 mg as a continuous oral daily dose; mesothelioma patients not responding to conventional therapy
Protocol: Clinical trials with the administration of a PDE4 modulator in an amount of from about 1 mg to about 1,000 mg, from about 1 mg to about 500 mg, or from about 1 mg to about 250 mg per day are conducted in patients with asbestosis, malignant mesothelioma, or malignant pleural effusion mesothelioma syndrome. In a specific embodiment, patients receive about 1 mg to about 1000 mg/day of 3-(3,4-dimethoxy-phenyl)-3-(1-oxo-1,3-dihydro-isoindol-2-yl)-propionamide alone or in combination with vinorelbine. Patients who experience clinical benefit are permitted to continue on treatment.
Other clinical studies are performed using 3-(3,4-dimethoxy-phenyl)-3-(1-oxo-1,3-dihydro-isoindol-2-yl)-propionamide in unresectable or relapsed mesothelioma patients that have not responded to conventional therapy. In one embodiment, 3-(3,4-dimethoxy-phenyl)-3-(1-oxo-1,3-dihydro-isoindol-2-yl)-propionamide is administered in an amount of about 1 mg to about 1,000 mg/day to the patients. Treatment with 400 mg as a continuous oral daily dose is well-tolerated.

TNF-α production = test: In vitro studies: inhibition of TNF-α production following LPS-stimulation of human PBMC and human whole blood; type: cell-based; conditions: comparator thalidomide
Protocol: In a specific embodiment, the pharmacological properties of 3-(3,4-dimethoxy-phenyl)-3-(1-oxo-1,3-dihydro-isoindol-2-yl)-propionamide are characterized in in vitro studies. Studies examine the effects of the compound on the production of various cytokines. Inhibition of TNF-α production following LPS-stimulation of human PBMC and human whole blood by the compound is investigated in vitro. The IC50's of the compound for inhibiting production of TNF-α are measured. […] The pharmacological effects of 3-(3,4-dimethoxy-phenyl)-3-(1-oxo-1,3-dihydro-isoindol-2-yl)-propionamide may derive from its action as an inhibitor of the generation of inflammatory cytokines.

In the case of COc1ccc(C(CC(N)=O)N2Cc3ccccc3C2=O)cc1OC (centres unmarked) [3-(3,4-Dimethoxy-phenyl)-3-(1-oxo-1,3-dihydro-isoindol-2-yl)-propionamide], the tolerability [1] is reported as “well-tolerated” and the “pharmacological activity profile, potency relative to thalidomide” value (TNF-α production) is reported as “five to fifty times more potent than thalidomide”.
